Experimental data taken from US10188633B2, “Identification of small molecules that facilitate therapeutic exon skipping” (The Regents of the University of California, priority 2011, dated 2019).

Key:
DMD exon 31 = details: cited from earlier work
DMD exon 51 = details: cited from earlier work
exon skipping = assay: Counter screens, 16 point titrations and mdx mouse myotubes (validation of lead hits); assay type: cell-based
Description: The cell line, which was adapted to allow the screening of thousands of compounds in multiple replicates, was obtained from Dr. Qi Lu. […]

[1] = test system: human DMD exon 50 GFP based reporter; assay: BioMol high throughput screen in Ex50-GFP reporter C2C12 myoblasts, with or without AON6; assay type: cell-based, mouse; details: compound 10 uM; for Average Fluorescence (n = 3): average of 3 replicate plates
Description: Small molecule libraries were screened for exon skipping promoting activity in C2C12 myoblasts expressing a human DMD exon 50 GFP based reporter. […] In the reporter cells, successful skipping of DMD exon 50 creates in-frame GFP expression. Number of cells that were fluorescing was quantified using a high content cell imager in 384 well plate format. Fluorescence was normalized by subtracting the average fluorescence value of the carrier (DMSO) controls. Fluorescence readouts are plotted for the BioMol library screen both with (+AO) and without (−AO) from Source Plate 1 (containing the Orphan Ligand, Ion Channel, Enzyme Inhibitor, and Endocannabanoid libraries, n=300). Each point for the DMSO controls, all compounds, and the Top 5% from Source Plate 1 (n=15) represents the average normalized fluorescence of 6 replicates in the −AO screen and 3 replicates in the +AO screen. […] Individual points for dantrolene are plotted with the bold horizontal line indicating the median. The short horizontal lines interspersed among the data points indicate 1, 2, and 3 standard deviations away from the DMSO treatment mean fluorescence.
In contrast to prior screens aimed at identifying small molecules which impact exon skipping, our screen is unique at least because it relies on robust quantitation of a skipping reporter in the context of a muscle lineage cell in the presence and absence of suboptimal AO. These screens were performed using a mouse muscle cell line (C2C12) expressing a human DMD exon 50 GFP based reporter selected to minimize experimental variation and sensitivity in the context of an automated and quantitative fluorescent scanning system.
AO was added prior to small molecule incubation in an effort to identify molecules that facilitate AO skipping rather than AO delivery. The fluorescence induced by each compound was normalized to a vehicle controls per plate to correct for plate to plate variability. Fluorescence was averaged across replicate plates (n=6 without AO screen, n=3 with AO screen). Compounds were rank ordered based on average intensity of fluorescence and difference between the without AO and with AO screen (FIG. 1 and Table 2).
(§1) A stable clone was generated from C2C12 cells transfected with a human exon 50 DMD GFP reporter (ex50GFP) that has been previously described. Ex50GFP reporter myoblasts were seeded into uncoated 384 well plates and were incubated for 4 hours either with or without 300 nM of 2′-O-methyl phosphorothioate AON6 [5′[…] 3′ (SEQ ID NO:1)] targeting the human exon 50 splice donor site. Cells were transfected with AON6 using the FUGENE (Roche) transfection reagent per manufacturer's instructions. Following AON6 incubation, each component of the BioMol library (n=503) was screened at 10 uM concentration with a final concentration of the DMSO carrier being 1%. Forty-eight hours later fluorescence was measured using the MicroXpress high content imager and analyzed using MetaXpress. Immediately preceding imaging, DNA was stained with Hoescht for 30 min. The BioMol screen without AO (−AO) was performed in 6 replicates, and the with AO (+AO) screen was performed in 3 replicates. For the screen analysis raw fluorescence values were normalized to carrier controls present on each plate by subtracting the values. Negative fluorescence values were set to 0. The data from each compound were averaged from all replicates. For secondary screening by 12 or 16 point dose response, Ex50GFP myoblasts or C2C12 cells without the reporter were seeded on uncoated 384 well plates. A sub-optimal dose of AON6 targeting DMD exon 50 was added for 4 hours.

[2] = test system: human DMD exon 50 GFP based reporter; assay: Secondary screening, 12 or 16 point titrations on the DMD exon 50 reporter cell line with or without AON6; assay type: cell-based, mouse; details: for increase in fluorescence in the Ex50-GFP+AO compared to the reporter line without AO: 12 or 16 point titrations from 100 uM, positivity criterion (FIG. 5 legend: >10%); for dose response in Ex50-GFP reporter: 12 or 16 point titrations with AON6
Protocol: 12 or 16 point titrations of compounds were added to the Ex50-GFP and C2C12 myoblasts either with or without AON6.
as §1, with “hours. Following the 4 hour incubation, a compound dilution was added (beginning at 100 uM with 1:1 dilutions) for either 12 or 16 points. After a 48 hour incubation with compounds, DNA was stained with Hoescht, and fluorescence determined using the high content imager and analyzed with MetaXpress.” for “hours.”

[3] = test system: Ca2+-ATPase of sarcoplasmic reticulum; details: at 0.5-2 μM ATP; cited from earlier work
[4] = cited from earlier work
[5] = Without AON6 screen, 48 h, normalized to DMSO carrier controls
[6] = With AON6 screen, 48 h, fluorescence normalized by subtracting DMSO carrier controls
[7] = With AON6 screen, 48 h, normalized to DMSO carrier controls

For CCN1/C(=C/C(C)=O)Sc2ccc(OC)cc21 [TG003], the “mutant exon 31 skipping” value (DMD exon 31) is listed as “increased mutant exon 31 skipping”.
For “Pro051: systemic 2′-O-methyl modified AO directed against DMD exon 51 (antisense UCAAGGAAGAUGGCAUUUCU; all 2'-O-methyl, backbone not given here)”, the “rescued dystrophin protein levels” value (DMD exon 51; systemic 2'-O-methyl AO, phase 1-2a) is listed as 1.8-15.6 % of normal and the “6 minute walk test at 48 weeks” value (DMD exon 51; weekly subcutaneous 6 mg/kg, non-placebo controlled extension) is listed as “modest improvement”.
With CN(C)CCCn1cc(C2=C(c3c[nH]c4ccccc34)C(=O)NC2=O)c2ccccc21 [GF 109203X] the “efficacy in counter screen and on mdx mouse myotubes” value (exon skipping) was “showing efficacy in counter screen and on mdx mouse myotubes”, the “Fluorescence Plate 1” value [1, 5] was 22.19 and the “Fluorescence Plate 2” value [1, 5] was 15.01. For the same compound, the “Fluorescence Plate 3” value [1, 5] was 13.67, the “Fluorescence Plate 4” value [1, 5] was 66.78 and the “Fluorescence Plate 5” value [1, 5] was 64.46. For the same compound, the “Fluorescence Plate 6” value [1, 5] was 66.48 and the “Average Fluorescence (n = 6)” value ([1]; Without AON6 screen, average of 6 replicate plates) was 41.76.
In the case of CYCLOPIAZONIC ACID, the “increase in fluorescence in the Ex50-GFP+AO compared to the reporter line without AO” value [2] is given as 10%, the “dose response in Ex50-GFP reporter” value [2] is given as “evidence of a dose response” and the “amount completely inhibiting the enzyme” value [3] is given as “Induces the release of intracellular stored Ca2+, without increasing IP3 levels, via inhibition of endoplasmic reticulum Ca2+− ATPase. It is a highly specific inhibitor of the Ca2+− ATPase of sarcoplasmic reticulum, completely inhibiting the enzyme at 6-8 nmol/mg protein (at 0.5-2 μM ATP)”. For the same compound, the “Fluorescence Plate 1” value [1, 6] was 29.57, the “Fluorescence Plate 2” value [1, 7] was 33.40 and the “Fluorescence Plate 3” value [1, 7] was 17.24. The “Average Fluorescence (n = 3)” value ([1]; With AON6 screen) was 26.74.
With CC1CNCCN1S(=O)(=O)c1cccc2cnccc12 (centres unmarked) [H-7] the “increase in fluorescence in the Ex50-GFP+AO compared to the reporter line without AO” value [2] was 10%, the “dose response in Ex50-GFP reporter” value [2] was “evidence of a dose response” and the “Fluorescence Plate 1” value [1, 6] was 29.03. For the same compound, the “Fluorescence Plate 2” value [1, 7] was 30.45, the “Fluorescence Plate 3” value [1, 7] was 12.11 and the “Average Fluorescence (n = 3)” value ([1]; With AON6 screen) was 23.87.
With COC(=O)Nc1nc2cc(Sc3ccccc3)ccc2[nH]1 [Fenbendazole] the “efficacy in counter screen and on mdx mouse myotubes” value (exon skipping) was “showing efficacy in counter screen and on mdx mouse myotubes”.
In the case of O=C1CN(/N=C/c2ncc(-c3ccc(Br)cc3)o2)C(=O)N1 [azumolene], the “water solubility relative to dantrolene” value [4] is given as “more water soluble than dantrolene”.
